Data published in US20100113465A1, “7-AZASPIRO[3.5]NONANE-7-CARBOXAMIDE COMPOUNDS” (Pfizer Inc., priority 2008, published 2010).

Legend:
Male Sprague-Dawley Rats = assay: In vivo Complete Freund's Adjuvant (CFA) efficacy assay; design: species or system rat; key: (+) indicates the test compound was determined to be efficacious at 3 mpk, oral dosing; (−) indicates the test compound was determined to not be efficacious at 3 mpk, oral dosing; details: 3 mpk, oral dosing; inhibition of allodynia (PWT) four hours postdose vs vehicle, p<0.05
Protocol: For additional information on the CFA efficacy assay, see Jayamanne et al., Brit. J. Pharmacol. 2006, 147, 281-288. Experiments were performed on adult Male Sprague-Dawley Rats (200 g-250 g). Inflammation was induced in the left hindpaw of the rat by an intra-plantar injection of 150 uL Complete Freund's Adjuvant (CFA) (SIGMA F5881). The CFA injection immediately induces local inflammation, paw swelling, and pain that persists for at least two weeks post-injection. Baseline paw withdrawal threshold (PWT) was measured to determine the percent inhibition of allodynia using a set of Von Frey Hairs on day 4 post injection as illustrated by the Dixon Up and Down Method (W. J. Dixon, Ann. Rev. Pharmacol. Toxicol. 1980, 20:441-462). […] Test compound was administered at a concentration of 3 mg/kg (mpk) orally with the dosing vehicle 5% N,N′-Dimethylacetamide (SIGMA D137510) and 95% (40% 2-hydroxypropyl-beta-cyclodextrin in water) (SIGMA H107). Following Dose administration PWT threshold was evaluated again at four hours postdose. The Sprague-Dawley rats used in this assay were purchased from Harlan, 8520 Allison Pointe Blvd., Indianapolis, Ind., 46250, U.S.A. Sprague-Dawley rats are an outbred breed of albino rats first produced by the Sprague Dawley farms in Madison, Wis., U.S.A.
Percent Inhibition of Allodynia was determined by the formula: […]
ΔPWT measurements were averaged for each treatment group and statistical comparisons between groups were made using ANOVA and Dunnett's two-tailed test. […]

human FAAH = molecular target: T1, human FAAH (Homo sapiens, UniProt O00519); assay: FAAH assay, human FAAH enzyme inhibition (kinact/Ki); assay type: biochemical; details: oleamide substrate 50 μM, 30° C., read-out: hFAAH kinact/Ki
T1 construct: made in house; host or cells: E. coli
T1 sequence (O00519 1-579): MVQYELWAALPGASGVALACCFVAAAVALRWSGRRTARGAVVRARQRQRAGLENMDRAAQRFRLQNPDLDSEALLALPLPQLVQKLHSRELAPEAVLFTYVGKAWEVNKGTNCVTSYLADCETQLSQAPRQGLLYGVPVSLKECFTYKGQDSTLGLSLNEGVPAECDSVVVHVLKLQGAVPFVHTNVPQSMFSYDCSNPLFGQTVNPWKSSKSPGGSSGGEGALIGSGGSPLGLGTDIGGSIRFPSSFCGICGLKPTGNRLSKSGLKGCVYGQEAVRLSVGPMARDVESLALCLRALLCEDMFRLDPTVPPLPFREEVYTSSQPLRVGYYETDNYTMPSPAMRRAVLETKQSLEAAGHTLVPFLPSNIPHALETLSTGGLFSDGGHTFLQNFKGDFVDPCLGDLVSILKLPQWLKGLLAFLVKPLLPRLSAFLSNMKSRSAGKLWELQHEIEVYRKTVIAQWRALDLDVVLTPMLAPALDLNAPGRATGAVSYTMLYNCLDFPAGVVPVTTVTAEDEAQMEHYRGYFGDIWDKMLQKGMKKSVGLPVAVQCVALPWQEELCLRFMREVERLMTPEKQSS
Protocol: (§1) The FAAH assay was carried out in 384-well clear polystyrene plates (Evergreen Scientific) in a total volume of 50 μl per well in a manner similar to that described by Mileni et al., Proc. Nat. Acad. Sci. 2008, 105, 12820-12824. All percents are by volume. Serial dilutions of compound were initially prepared in 100% DMSO, and then diluted two-fold into HPLC-grade H2O to give 50% DMSO. To each well, was placed the reaction mixture (40 μl) containing 1-4 nM FAAH, 50 mM NaPi, pH 7.4, 3 mM α-ketoglutarate, 0.15 mM NADH, 7.5 U/ml glutamate dehydrogenase, 2 mM ADP, 1 mM EDTA, and 0.1% Triton X-100 (The concentration shown for each component is the final concentration in the assay). To this mixture, was added 5 μl of a compound of Examples 1 to 56 at various concentrations in 50% DMSO (or 5 μl 50% DMSO for controls). This was immediately followed by the addition of 5 μl oleamide (500 μM) dissolved in 75% EtOH/25% DMSO and the reaction mixture was mixed for 1.5 min. The final concentrations of DMSO and EtOH in the assay were each 7.5%. The reactions were incubated at 30° C. and the absorbance at 340 nm was collected over a period of 90 min with readings taken in 30-second intervals using SpectraMax Plus^384 Microplate Spectrophotometer (Molecular Devices, Sunnyvale, Calif.). The human FAAH and rat FAAH used in the assay was prepared as described in the patent application WO 2006/067613 using wild-type E. coli cells transformed in St. Louis, Mo., U.S.A. The purity of the enzyme was greater than 98% based on an analysis by SDS-polyacrylamide gel electrophoresis followed by Coomassie Blue staining.
(§2) Reaction progress curves were corrected for the non-enzymatic oxidation of NADH by subtraction of absorbancies at each time point obtained from control reactions containing no FAAH enzyme. The loss of enzyme activity as a function of time is well-described by the following mathematical equation (1) for a mono-exponential decay: […]
(§3) where At represents the absorbance at time t, A0 represents the absorbance at time zero, and C represents a constant. Observed rates of enzyme inactivation (kobs) were determined from the non-linear reaction progress curves by fitting the corrected absorbancies to an equation for a mono-exponential decay using the third-party Microsoft Excel plug-in, XLfit (IDBS Limited). Secondary plots of kobs vs. inhibitor concentration were prepared from kobs values obtained from progress curves. Second-order rates for enzyme inactivation, expressed as kinact/Ki (M^−1s^−1), were calculated from the slopes from linear regression analysis of the secondary plot of kobs vs. inhibitor concentration as defined in following equation (2), where [I]<<Ki:
(§4) The concentration of substrate in the assay was equal to the Km for oleamide of 50 μM. Therefore, reported kinact/Ki values are obtained by multiplying resulting slopes by a factor of two (i.e. slope=kinact/(Ki*2)).

rat FAAH = molecular target: T2, rat FAAH (Rattus norvegicus, UniProt P97612); assay: FAAH assay, rat FAAH enzyme inhibition (kinact/Ki); assay type: biochemical; details: oleamide substrate 50 μM, 30° C., read-out: rFAAH kinact/Ki
T2 construct: made in house; host or cells: E. coli
T2 sequence (P97612 1-579): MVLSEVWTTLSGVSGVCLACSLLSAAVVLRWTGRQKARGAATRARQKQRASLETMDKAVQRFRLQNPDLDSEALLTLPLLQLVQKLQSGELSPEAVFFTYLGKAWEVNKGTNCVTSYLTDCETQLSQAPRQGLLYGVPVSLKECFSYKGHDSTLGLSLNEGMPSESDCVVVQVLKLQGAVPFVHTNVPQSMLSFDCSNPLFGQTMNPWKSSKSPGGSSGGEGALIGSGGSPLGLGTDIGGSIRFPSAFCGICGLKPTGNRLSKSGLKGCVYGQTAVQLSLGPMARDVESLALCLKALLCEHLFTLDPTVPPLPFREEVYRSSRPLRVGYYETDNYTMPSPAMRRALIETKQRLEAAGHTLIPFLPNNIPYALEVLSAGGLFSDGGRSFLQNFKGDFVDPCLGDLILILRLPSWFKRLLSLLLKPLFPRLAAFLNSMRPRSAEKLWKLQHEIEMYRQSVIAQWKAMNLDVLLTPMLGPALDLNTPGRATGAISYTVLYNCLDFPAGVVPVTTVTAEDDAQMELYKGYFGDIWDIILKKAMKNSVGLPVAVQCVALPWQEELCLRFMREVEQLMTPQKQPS
Protocol: as §1, §2, §3, §4

Row | Structure (SMILES) | CFA Efficacy (Male Sprague-Dawley Rats) | kinact/KI (human FAAH) [M⁻¹ s⁻¹] | kinact/KI (rat FAAH) [M⁻¹ s⁻¹]
1 | Cc1noc(NC(=O)N2CCC3(CC2)CC(c2csc(-c4cccc(C(F)(F)F)c4)n2)C3)c1C [Example 36, N-(3,4-dimethylisoxazol-5-yl)-2-{2-[3-(trifluoromethyl)phenyl]-1,3-thiazol-4-yl}-7-azaspiro[3.5]nonane-7-carboxamide] | (+) | 2030 | 1160
2 | Cn1nnnc1NC(=O)N1CCC2(CC1)CC(F)(c1cccc(OC(F)(F)F)c1)C2 [Example 53, 2-fluoro-N-(1-methyl-1H-tetrazol-5-yl)-2-[3-(trifluoromethoxy)phenyl]-7-azaspiro[3.5]nonane-7-carboxamide] | (+) | 13900 | 1920
3 | Cn1nnnc1NC(=O)N1CCC2(CC1)CC(c1ccc(F)c(Cl)c1)C2 [Example 48, 2-(3-chloro-4-fluorophenyl)-N-(1-methyl-1H-tetrazol-5-yl)-7-azaspiro[3.5]nonane-7-carboxamide] | (+) | 16300 | 5940
4 | Cc1cc(C2CC3(CCN(C(=O)Nc4onc(C)c4C)CC3)C2)ccc1F [Example 12, N-(3,4-dimethylisoxazol-5-yl)-2-(4-fluoro-3-methylphenyl)-7-azaspiro[3.5]nonane-7-carboxamide] | (+) | 3950 | 2990
5 | Cn1nnnc1NC(=O)N1CCC2(CC1)CC(c1cccc(OC(F)(F)F)c1)C2 [Example 45, N-(1-methyl-1H-tetrazol-5-yl)-2-[3-(trifluoromethoxy)phenyl]-7-azaspiro[3.5]nonane-7-carboxamide] | (+) | 13200 | 4570
6 | Cn1nnnc1NC(=O)N1CCC2(CC1)CC(c1cccc(C(F)(F)F)c1)C2 [Example 24, N-(1-methyl-1H-tetrazol-5-yl)-2-[3-(trifluoromethyl)phenyl]-7-azaspiro[3.5]nonane-7-carboxamide] | (+) | 12400 | 5750
7 | Cc1noc(NC(=O)N2CCC3(CC2)CC(c2ccc(Cl)c(Cl)c2)C3)c1C [Example 20, 2-(3,4-dichlorophenyl)-N-(3,4-dimethylisoxazol-5-yl)-7-azaspiro[3.5]nonane-7-carboxamide] | (+) | 4550 | 3470
8 | Cc1noc(NC(=O)N2CCC3(CC2)CC(c2cccc(C(F)(F)F)c2F)C3)c1C [Example 30, N-(3,4-dimethylisoxazol-5-yl)-2-[2-fluoro-3-(trifluoromethyl)phenyl]-7-azaspiro[3.5]nonane-7-carboxamide] | (+) | 3240 | 2340
9 | Cc1noc(NC(=O)N2CCC3(CC2)CC(c2noc(-c4ccc(C(F)(F)F)cc4)n2)C3)c1C [Example 33, N-(3,4-dimethylisoxazol-5-yl)-2-{5-[4-(trifluoromethyl)phenyl]-1,2,4-oxadiazol-3-yl}-7-azaspiro[3.5]nonane-7-carboxamide] | (+) | 1600 | 636
10 | Cc1noc(NC(=O)N2CCC3(CC2)CC(c2cccc(OCCOc4ccc(Cl)cc4)c2)C3)c1C [Example 25, 2-{3-[2-(4-chlorophenoxy)ethoxy]phenyl}-N-(3,4-dimethylisoxazol-5-yl)-7-azaspiro[3.5]nonane-7-carboxamide] | (+) | 2860 | 2340
11 | Cc1noc(NC(=O)N2CCC3(CC2)CC(c2cccc(Cl)c2)C3)c1C [Example 13, 2-(3-chlorophenyl)-N-(3,4-dimethylisoxazol-5-yl)-7-azaspiro[3.5]nonane-7-carboxamide] | (+) | 3940 | 3560
12 | Cc1noc(NC(=O)N2CCC3(CC2)CC(c2cc(Cl)ccc2F)C3)c1C [Example 21, 2-(5-chloro-2-fluorophenyl)-N-(3,4-dimethylisoxazol-5-yl)-7-azaspiro[3.5]nonane-7-carboxamide] | (+) | 2700 | 1510
13 | Cn1nnnc1NC(=O)N1CCC2(CC1)CC(c1cccc(C(F)(F)F)c1F)C2 [Example 47, 2-[2-fluoro-3-(trifluoromethyl)phenyl]-N-(1-methyl-1H-tetrazol-5-yl)-7-azaspiro[3.5]nonane-7-carboxamide] | (+) | 15400 | 3330
14 | O=C(Nc1nnc(-c2cccc(Cl)c2)o1)N1CCC2(CC1)CC(c1cccc(OC(F)(F)F)c1)C2 [Example 51, N-[5-(3-chlorophenyl)-1,3,4-oxadiazol-2-yl]-2-[3-(trifluoromethoxy)phenyl]-7-azaspiro[3.5]nonane-7-carboxamide] | – | 2520 | 5460
15 | Cn1nnnc1NC(=O)N1CCC2(CC1)CC(c1cccc(F)c1F)C2 [Example 56, 2-(2,3-difluorophenyl)-N-(1-methyl-1H-tetrazol-5-yl)-7-azaspiro[3.5]nonane-7-carboxamide] | – | 10300 | 1940
